Read-outs that look alike come from different tables or passages of the source.
What was measured:
[1] = biological target: farnesyl protein transferase (Homo sapiens, UniProt P49354+P49356); assay: FPT IC50, inhibition of farnesyl protein transferase, in vitro enzyme assay (procedure of WO 95/10516); format: biochemical; settings: one range stated for the whole list of compounds
Protocol: (§1) FPT IC50 (inhibition of farnesyl protein transferase, in vitro enzyme assay), GGPT IC50 (inhibition of geranylgeranyl protein transferase, in vitro enzyme assay) and COS Cell IC50 (Cell-Based Assay) were determined following the assay procedures described in WO 95/10516, published April 20, 1995. Cell Mat Assay, and anti-tumor activity (in vivo anti-tumor studies) could be determined by the assay procedures described in WO 95/10516. The disclosure of WO 95/10516 is incorporated herein by reference thereto.

[2] = test system: COS Cell; assay: COS Cell IC50 (Cell-Based Assay, procedure of WO 95/10516); settings: one range stated for the whole list of compounds
Protocol: as §1

[3] = test system: Human tumor cells; assay: Soft Agar Assay (anchorage-independent growth, colony count after MTT staining); format: cell-based; settings: one range stated for the whole list of compounds
Protocol: Anchorage-independent growth is a characteristic of tumorigenic cell lines. Human tumor cells are suspended in growth medium containing 0.3% agarose and an indicated concentration of a farnesyl transferase inhibitor. The solution is overlayed onto growth medium solidified with 0.6% agarose containing the same concentration of farnesyl transferase inhibitor as the top layer. After the top layer is solidified, plates are incubated for 10-16 days at 37°C under 5% CO2 to allow colony outgrowth. After incubation, the colonies are stained by overlaying the agar with a solution of MTT (3-[4,5-dimethylthiazol-2-yl]-2,5-diphenyltetrazolium bromide, Thiazolyl blue) (1 mg/mL in PBS). Colonies can be counted and the IC50's can be determined.

[4] = biological target: geranylgeranyl protein transferase (Rattus norvegicus, UniProt P53610+Q04631); assay: GGPT IC50, inhibition of geranylgeranyl protein transferase, in vitro enzyme assay (procedure of WO 95/10516); format: biochemical
Protocol: as §1

[5] = H-ras, read-out: FPT IC50 (H-ras)
[6] = K-ras, read-out: FPT IC50 (K-ras)

Sequence of farnesyl protein transferase (P49356 whole entry, one chain of several): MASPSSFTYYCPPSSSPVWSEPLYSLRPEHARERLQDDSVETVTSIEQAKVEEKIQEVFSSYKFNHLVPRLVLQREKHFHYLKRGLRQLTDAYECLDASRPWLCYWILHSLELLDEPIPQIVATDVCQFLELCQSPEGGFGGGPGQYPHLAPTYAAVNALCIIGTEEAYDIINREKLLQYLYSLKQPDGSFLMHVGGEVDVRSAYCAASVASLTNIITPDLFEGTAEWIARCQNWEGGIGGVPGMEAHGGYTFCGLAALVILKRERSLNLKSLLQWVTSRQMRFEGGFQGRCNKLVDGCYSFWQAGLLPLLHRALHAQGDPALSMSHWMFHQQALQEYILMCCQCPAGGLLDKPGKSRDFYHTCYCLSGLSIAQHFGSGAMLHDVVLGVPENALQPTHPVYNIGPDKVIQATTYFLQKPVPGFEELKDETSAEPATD

SMILES	IC50 [1, 5] [nM]	IC50 [2] [nM]	IC50 [3] [nM]	IC50 [1, 6] [nM]	IC50 [4] [nM]
N=C(Oc1ccccc1)N1CCC(CC(=O)N2CCC(C3c4ccc(Cl)c(Br)c4CCc4cc(Br)cnc43)CC2)CC1 (racemic) [Compound 26.0]	≥ 0.8				
N#CN=C(Oc1ccccc1)N1CCC(CC(=O)N2CCN(C3c4ccc(Cl)cc4CCc4cc(Br)cnc43)CC2)CC1 (stereo not drawn) [Compound 2.0, PHENYL 4-[2-[4-(3-BROMO-8-CHLORO-6,11-DIHYDRO-5H-BENZO[5,6]CYCLOHEPTA[1,2-b]PYRIDIN-11-YL)-1-PIPERAZINYL]-2-OXOETHYL]-N-CYANO-1-PIPERIDINE- CARBOXIMIDATE]	≥ 0.8				
N#CNC(=N)N1CCC(CC(=O)N2CCN(C3c4ccc(Cl)cc4CCc4cc(Br)cnc43)CC2)CC1 (stereo not drawn) [Compound 3.0, 4-[2-[4-(3-BROMO-8-CHLORO-6,11-DIHYDRO-5H-BENZO[5,6]CYCLOHEPTA[1,2-b]PYRIDIN-11-YL)-1-PIPERAZINYL]-2-OXOETHYL]-N-CYANO-1-PIPERIDINE-CARBOXIMIDAMIDE]	≥ 0.8				
N=C(Oc1ccccc1)N1CCC(CC(=O)N2CCN(C3c4ccc(Cl)cc4CCc4cc(Br)cnc43)CC2)CC1 (stereo not drawn) [Compound 4.0, PHENYL 4-[2-[4-(3-BROMO-8-CHLORO-6,11-DIHYDRO-5H-BENZO[5,6]CYCLOHEPTA[1,2-b]PYRIDIN-11-YL)-1-PIPERAZINYL]-2-OXOETHYL]-1-PIPERIDINECARBOXIMIDATE]	≥ 0.8				
N#CN1CCC(CC(=O)N2CCN(C3c4ccc(Cl)cc4CCc4cc(Br)cnc43)CC2)CC1 (stereo not drawn) [Compound 5.0]	≥ 0.8				
N=C(NS(N)(=O)=O)N1CCC(CC(=O)N2CCN(C3c4ccc(Cl)cc4CCc4cc(Br)cnc43)CC2)CC1 (stereo not drawn) [Compound 7.0, 4-[2-[4-(3-BROMO-8-CHLORO-6,11-DIHYDRO-5H-BENZO[5,6]CYCLOHEPTA[1,2-b]PYRIDIN-11-YL)-1-PIPERAZINYL]-2-OXOETHYL]-N-SULFAMOYL-1-PIPERIDINE-CARBOXIMIDAMIDE]	≥ 0.8				
NC(=NO)N1CCC(CC(=O)N2CCN(C3c4ccc(Cl)cc4CCc4cc(Br)cnc43)CC2)CC1 (stereo not drawn) [Compound 12.0, 4-[2-[4-(3-BROMO-8-CHLORO-6,11-DIHYDRO-5H-BENZO[5,6]CYCLOHEPTA[1,2-b]PYRIDIN-11-YL)-1-PIPERAZINYL]-2-OXOETHYL]-N-HYDROXY-1-PIPERIDINECARBOXIMIDATE]	≥ 0.8				
CON=C(N)N1CCC(CC(=O)N2CCN(C3c4ccc(Cl)cc4CCc4cc(Br)cnc43)CC2)CC1 (stereo not drawn) [Compound 13.0, 4-[2-[4-(3-BROMO-8-CHLORO-6,11-DIHYDRO-5H-BENZO[5,6]CYCLOHEPTA[1,2-b]PYRIDIN-11-YL)-1-PIPERAZINYL]-2-OXOETHYL]-N-METHOXY-1-PIPERIDINE-CARBOXIMIDATE]	≥ 0.8				
NC(=O)NC(=O)N=C(Oc1ccccc1)N1CCC(CC(=O)N2CCN(C3c4ccc(Cl)cc4CCc4cc(Br)cnc43)CC2)CC1 (stereo not drawn) [Compound 16.1, PHENYL N-[[(AMINOCARBONYL)AMINO]CARBONYL]-4-[2-[4-(3-BROMO-8-CHLORO-6,11-DIHYDRO-5H-BENZO[5,6]CYCLOHEPTA-[1,2-b]PYRIDIN-11-YL)-1-PIPERAZINYL]-2-OXOETHYL]-1-PIPERIDINECARBOXIMIDATE]	≥ 0.8				
N=C(NC(=O)NC(N)=O)N1CCC(CC(=O)N2CCN(C3c4ccc(Cl)cc4CCc4cc(Br)cnc43)CC2)CC1 (stereo not drawn) [Compound 17.1, N-[[(AMINOCARBONYL)AMINO]CARBONYL]-4-[2-[4-(3-BROMO-8-CHLORO-6,11-DIHYDRO-5H-BENZO[5,6]CYCLOHEPTA[1,2-b]-PYRIDIN-11-YL)-1-PIPERAZINYL]-2-OXOETHYL]-1-PIPERIDINECARBOXIMIDAMIDE]	≥ 0.8				
O=C(O)c1cncc(C(=O)N2CCC(CC(=O)N3CCC([C@H]4c5ncc(Br)cc5CCc5cc(Cl)cc(Br)c54)CC3)CC2)c1 [Compound 25.0-B]		≥ 7	≥ 90		
Cc1noc(C)c1C(=O)N1CCC(CC(=O)N2CCC([C@H]3c4ncc(Br)cc4CCc4cc(Cl)cc(Br)c43)CC2)CC1 [Compound 27.0-B]		≥ 7	≥ 90		
N=C(Oc1ccccc1)N1CCC(CC(=O)N2CCC([C@H]3c4ncc(Br)cc4CCc4cc(Cl)cc(Br)c43)CC2)CC1 [Compound 27.0]	≥ 0.8	≥ 12	≥ 90	16 to 782	
O=C1N[C@H](C(=O)N2CCC(CC(=O)N3CCC([C@H]4c5ncc(Br)cc5CCc5cc(Cl)cc(Br)c54)CC3)CC2)CO1 [Compound 28.0-B]		≥ 7	≥ 90		
N#CN1CCC(CC(=O)N2CCC(C3c4ccc(Cl)c(Br)c4CCc4cc(Br)cnc43)CC2)CC1 (stereo not drawn) [Compound 28.0]	≥ 0.8	≥ 12		16 to 782	> 9600
NC(=O)c1cncc(C(=O)N2CCC(CC(=O)N3CCC([C@H]4c5ncc(Br)cc5CCc5cc(Cl)cc(Br)c54)CC3)CC2)c1 [Compound 29.0-B]		≥ 7	≥ 90		

SMILES	IC50 [1, 5] [nM]	IC50 [2] [nM]	IC50 [3] [nM]	IC50 [1, 6] [nM]	IC50 [4] [nM]
N#CN1CCC(CC(=O)N2CCC([C@H]3c4ncc(Br)cc4CCc4cc(Cl)cc(Br)c43)CC2)CC1 [Compound 29.0]	≥ 0.8	≥ 12			
N=C(N)N1CCC(CC(=O)N2CCC(C3c4ccc(Cl)c(Br)c4CCc4cc(Br)cnc43)CC2)CC1 (stereo not drawn) [Compound 30.0]	≥ 0.8	≥ 12			
O=C(CC1CCN(C(=O)c2cn[nH]c2)CC1)N1CCC([C@H]2c3ncc(Br)cc3CCc3cc(Cl)cc(Br)c32)CC1 [Compound 31.0-B]		≥ 7	≥ 90		
N=C(NCc1cccnc1)N1CCC(CC(=O)N2CCC(C3c4ccc(Cl)c(Br)c4CCc4cc(Br)cnc43)CC2)CC1 (stereo not drawn) [Compound 31.0]	≥ 0.8	≥ 12		16 to 782	> 7500
CC(=O)N1CCC(CC(=O)N2CCC([C@H]3c4ncc(Br)cc4CCc4cc(Cl)cc(Br)c43)CC2)CC1 [Compound 36.0-B]		≥ 7	≥ 90		
CCn1cccc1C(=O)N1CCC(CC(=O)N2CCC([C@H]3c4ncc(Br)cc4CCc4cc(Cl)cc(Br)c43)CC2)CC1 [Compound 40.0-B]	≥ 0.8	≥ 7	≥ 90		
O=C(CC1CCN(C(=O)c2cc[n+]([O-])cc2)CC1)N1CCC([C@H]2c3ncc(Br)cc3CCc3cc(Cl)cc(Br)c32)CC1 [Compound 45.0-B]		≥ 7	≥ 90		
O=C(CC1CCN(C(=O)c2ccc[n+]([O-])c2)CC1)N1CCC([C@H]2c3ncc(Br)cc3CCc3cc(Cl)cc(Br)c32)CC1 [Compound 46.0-B]		≥ 7	≥ 90		
O=C(CC1CCN(C(=O)c2ccc(O)nc2)CC1)N1CCC([C@H]2c3ncc(Br)cc3CCc3cc(Cl)cc(Br)c32)CC1 [Compound 47.0-B]		≥ 7	≥ 90		
O=C(CC1CCN(C(=O)c2cccnc2O)CC1)N1CCC([C@H]2c3ncc(Br)cc3CCc3cc(Cl)cc(Br)c32)CC1 [Compound 48.0-B]		≥ 7	≥ 90		
CC(=O)OC1CCC(C(=O)N2CCC(CC(=O)N3CCC(C4c5ncc(Br)cc5CCc5cc(Cl)cc(Br)c54)CC3)CC2)CC1 (stereo not drawn) [Compound 66.0-B]		≥ 7	≥ 90		
O=C1C[C@@H](C(=O)N2CCC(CC(=O)N3CCC([C@H]4c5ncc(Br)cc5CCc5cc(Cl)cc(Br)c54)CC3)CC2)NC(=O)N1 [Compound 78.0-B]		≥ 7	≥ 90		
O=C(CC1CCN(C(=O)[C@@H]2CSCN2)CC1)N1CCC([C@H]2c3ncc(Br)cc3CCc3cc(Cl)cc(Br)c32)CC1 [Compound 80.0-B]			≥ 90		
O=C(CC1CCN(C(=O)c2ncccc2O)CC1)N1CCC([C@H]2c3ncc(Br)cc3CCc3cc(Cl)cc(Br)c32)CC1 [Compound 83.0-B]		≥ 7	≥ 90		
O=C(CC1CCN(C(=O)c2ccoc2)CC1)N1CCC([C@H]2c3ncc(Br)cc3CCc3cc(Cl)cc(Br)c32)CC1 [Compound 84.0-B]		≥ 7	≥ 90		
O=C(CC1CCN(C(=O)N2CCOCC2)CC1)N1CCC([C@H]2c3ncc(Br)cc3CCc3cc(Cl)cc(Br)c32)CC1 [Compound 100.0-B]		≥ 7	≥ 90		
